From US12594277B2, “Macrocyclic ULK1/2 inhibitors” (SALK INSTITUTE FOR BIOLOGICAL STUDIES, priority 2020, dated 2026)

Legend:
[1] = biological target: T1, recombinant human ULK1 protein (1-649) (Homo sapiens, UniProt O75385); assay: ULK1 inhibition assay (ADP-Glo); format: biochemical; conditions: 2 ug/mL ULK1, 80 ug/mL myelin basic protein, 25 uM ATP, assessed after one hour
T1 construct: recombinant human ULK1 protein (1-649, SignalChem #U01-11G); purchased SignalChem U01-11G
T1 sequence (O75385 1-649): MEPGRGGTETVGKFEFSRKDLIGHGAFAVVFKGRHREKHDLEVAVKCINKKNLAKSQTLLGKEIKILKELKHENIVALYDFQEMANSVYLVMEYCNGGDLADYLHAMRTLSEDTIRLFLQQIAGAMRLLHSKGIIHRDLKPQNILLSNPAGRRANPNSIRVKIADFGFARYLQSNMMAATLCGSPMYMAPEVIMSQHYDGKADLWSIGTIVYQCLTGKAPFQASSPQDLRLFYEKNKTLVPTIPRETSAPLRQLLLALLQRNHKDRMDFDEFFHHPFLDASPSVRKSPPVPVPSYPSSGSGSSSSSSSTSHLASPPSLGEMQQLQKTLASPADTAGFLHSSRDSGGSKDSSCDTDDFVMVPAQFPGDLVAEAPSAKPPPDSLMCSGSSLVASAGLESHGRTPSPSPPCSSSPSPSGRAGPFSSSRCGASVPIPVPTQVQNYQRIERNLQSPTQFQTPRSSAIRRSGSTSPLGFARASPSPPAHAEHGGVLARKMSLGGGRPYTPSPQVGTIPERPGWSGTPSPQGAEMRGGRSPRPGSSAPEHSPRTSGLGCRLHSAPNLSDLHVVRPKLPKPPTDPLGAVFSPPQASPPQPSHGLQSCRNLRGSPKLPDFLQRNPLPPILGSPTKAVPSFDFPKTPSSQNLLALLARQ
Protocol: IC50s measured by ADP-Glo assay are represented nM, with A representing IC50<20 nM, B representing IC50>20 nM. NT indicates the compound was not tested. ULK1 inhibition assays were performed in a 5 uL reaction volume containing 2 ug/mL recombinant human ULK1 protein (1-649, SignalChem #U01-11G) and 80 ug/mL myelin basic protein (MBP, Sigma-Aldrich #M1891) in the presence of 25 uM ATP (Sigma-Aldrich A7699). ULK 1 inhibition was assessed after one hour. Compounds were tested in triplicate in a 16-dose IC50 mode with 3-fold serial dilution and a starting dose of 30 uM. Staurosporine, a non-selective protein kinase inhibitor, was used in the assay as a positive control. Three separate experiments were carried out.

[2] = biological target: T2, NanoLuc-ULK1 fusion in HEK293T cells (Homo sapiens, UniProt O75385); assay: ULK1 NanoBRET assay; format: cell-based; conditions: HEK293T transfected with NanoLuc-ULK1 Fusion Vector, Tracer K-5, 2 h incubation
T2 construct: host or cells: HEK293T
T2 sequence (O75385 1-1050): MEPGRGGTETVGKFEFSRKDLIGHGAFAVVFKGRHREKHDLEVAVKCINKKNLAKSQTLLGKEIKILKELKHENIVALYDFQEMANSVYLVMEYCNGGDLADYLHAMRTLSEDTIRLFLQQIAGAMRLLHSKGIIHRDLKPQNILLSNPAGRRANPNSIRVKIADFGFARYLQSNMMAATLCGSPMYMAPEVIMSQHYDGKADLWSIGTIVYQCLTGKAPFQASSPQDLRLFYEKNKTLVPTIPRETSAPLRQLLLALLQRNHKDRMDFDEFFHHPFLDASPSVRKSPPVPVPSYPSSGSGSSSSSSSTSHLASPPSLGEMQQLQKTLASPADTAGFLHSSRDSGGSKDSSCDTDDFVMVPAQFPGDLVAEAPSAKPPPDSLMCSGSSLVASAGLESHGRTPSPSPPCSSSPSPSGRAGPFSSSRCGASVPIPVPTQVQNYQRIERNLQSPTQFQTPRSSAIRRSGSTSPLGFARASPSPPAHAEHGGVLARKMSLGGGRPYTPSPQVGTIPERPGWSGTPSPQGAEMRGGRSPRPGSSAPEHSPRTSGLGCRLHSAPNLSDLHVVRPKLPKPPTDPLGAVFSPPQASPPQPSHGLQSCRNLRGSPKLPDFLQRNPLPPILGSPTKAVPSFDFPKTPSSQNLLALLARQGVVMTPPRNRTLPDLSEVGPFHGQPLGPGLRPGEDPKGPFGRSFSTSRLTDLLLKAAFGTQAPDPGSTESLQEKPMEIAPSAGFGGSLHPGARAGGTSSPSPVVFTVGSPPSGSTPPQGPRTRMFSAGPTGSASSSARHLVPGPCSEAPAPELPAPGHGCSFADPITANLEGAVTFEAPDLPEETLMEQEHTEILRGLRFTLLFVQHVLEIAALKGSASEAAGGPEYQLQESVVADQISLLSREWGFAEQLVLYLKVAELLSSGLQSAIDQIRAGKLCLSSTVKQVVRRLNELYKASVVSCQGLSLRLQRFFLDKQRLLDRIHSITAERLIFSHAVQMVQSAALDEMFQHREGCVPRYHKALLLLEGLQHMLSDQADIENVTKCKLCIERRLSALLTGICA
Protocol: IC50s were also measured by ULK1 NanoBRET assay according to the following protocol: Human embryonic kidney cells (HEK293T) were transfected with NanoLuc®-ULK1 Fusion Vector (Promega #NV2211) using jetPRIME transfection reagent (Polyplus Transfection #114-15). Following 24 h, cells were trypsinized and resuspended in Opti-MEM® I (1×), Reduced Serum Medium (Gibco, #11058-021). Approximately, 7,000 cells per well (in 34 μL total volume) were replated into non-binding surface 384 well plates. Complete NanoBRET 20× Tracer K-5 reagent was prepared according to the manufacturer's directions and 2 μL were added to each well of the 384 plate (assay plate). The assay plate was mixed on an orbital shaker for 15 seconds at 700 rpm. Compounds were serially diluted at 200× final concentration in […], then diluted to 10× final concentration in assay media (Opti-MEM® I, Reduced Serum Medium). Next, 4 μL 10× test compounds were added to each well of the assay plate, followed by mixing at 700 rpm for 15 seconds. The assay plate was incubated for 2 h in a 37 C incubator with […] and then equilibrated to RT for 15 min. The 3× Complete Substrate plus Inhibitor Solution was prepared according to the manufacturer's directions with a concentration of Extracellular NanoLuc® Inhibitor of 60 μM to be used at a working concentration of 20 μM. The 3× Complete Substrate plus Inhibitor Solution was mixed and 20 μL per well was added to the assay plate and incubated at RT for 2-3 min. Donor emission wavelength (450 nm) and acceptor emission wavelength (610 nm) were measured using an assay compatible luminometer (see manufacturer's specifications).

| SMILES | IC50 [1] [nM] | IC50 [2] [nM] |
| --- | --- | --- |
| CNC(=O)c1ccc2cc1Nc1nc(ncc1C(F)(F)F)Nc1ccc(c(OC)c1)OC/C=C/CCO2 [Compound 24, (E/Z)-5^3-Methoxy-N-methyl-3^5-(trifluoromethyl)-6,12-dioxa-2,4-diaza-3(4,2)-pyrimidina-1(1,3),5(1,4)-dibenzenacyclododecaphan-8-ene-1^6-carboxamide] | > 20 | > 1000 |
| C=CCCCOc1ccc(Nc2nc(Nc3ccc(OCC=C)c(OC)c3)ncc2C(F)(F)F)c(C(=O)NC)c1 [Compound 5, 2-((2-((4-(Allyloxy)-3-methoxyphenyl)amino)-5-(trifluoromethyl)pyrimidin-4-yl)amino)-N-methyl-5-(pent-4-en-1-yloxy)benzamide] | > 20 | > 1000 |
| CNC(=O)c1ccc2cc1Nc1nc(ncc1C(F)(F)F)Nc1ccc(OC)c(c1)OC/C=C/CCO2 [Compound 22, (Z)-1^4-methoxy-N-methyl-3^5-(trifluoromethyl)-6,12-dioxa-2,4-diaza-3(2,4)-pyrimidina-1,5(1,3)-dibenzenacyclododecaphan-9-ene-5^6-carboxamide] | > 20 | > 1000 |
| CNC(=O)c1ccc2cc1Nc1nc(ncc1C(F)(F)F)Nc1ccc(OC)c(c1)OC/C=C\CCO2 [Compound 21, (E)-1^4-methoxy-N-methyl-3^5-(trifluoromethyl)-6,12-dioxa-2,4-diaza-3(2,4)-pyrimidina-1,5(1,3)-dibenzenacyclododecaphan-9-ene-5^6-carboxamide] | > 20 | > 1000 |
| CNC(=O)c1ccc2cc1Nc1nc(ncc1C(F)(F)F)Nc1ccc(c(OC)c1)OC/C=C\CCCO2 [Compound 16, (Z)-5^3-methoxy-N-methyl-3^5-(trifluoromethyl)-6,13-dioxa-2,4-diaza-3(4,2)-pyrimidina-1(1,3),5(1,4)-dibenzenacyclotridecaphan-8-ene-1^6-carboxamide] | > 20 | > 1000 |
| CNC(=O)c1ccc2cc1Nc1nc(ncc1C(F)(F)F)Nc1ccc(c(OC)c1)OC/C=C/CCCO2 [Compound 15, (E)-5^3-methoxy-N-methyl-3^5-(trifluoromethyl)-6,13-dioxa-2,4-diaza-3(4,2)-pyrimidina-1(1,3),5(1,4)-dibenzenacyclotridecaphan-8-ene-1^6-carboxamide] | > 20 | > 1000 |

Continued, values first:

| IC50 [1] [nM] | IC50 [2] [nM] | SMILES |
| --- | --- | --- |
| < 20 | > 1000 | CNC(=O)c1cc2ccc1Nc1nc(ncc1C(F)(F)F)Nc1ccc(c(OC)c1)OCCCCCO2 [Compound 1, 1^3-Methoxy-N-methyl-3^5-(trifluoromethyl)-6,12-dioxa-2,4-diaza-3(2,4)-pyrimidina-1,5(1,4)-dibenzenacyclododecaphane-5^2-carboxamide] |
| < 20 | < 1000 | CNC(=O)c1cc2ccc1Nc1nc(ncc1C(F)(F)F)Nc1ccc(c(OC)c1)OC/C=C/CCCO2 [Compound 6, (E/Z)-1^3-Methoxy-N-methyl-3^5-(trifluoromethyl)-6,13-dioxa-2,4-diaza-3(2,4)-pyrimidina-1,5(1,4)-dibenzenacyclotridecaphan-10-ene-5^2-carboxamide] |
| > 20 | < 1000 | CNC(=O)c1cc2ccc1Nc1nc(ncc1C(F)(F)F)Nc1ccc(c(OC)c1)OC/C=C\CCO2 [Compound 4, (Z)-1^3-methoxy-N-methyl-3^5-(trifluoromethyl)-6,12-dioxa-2,4-diaza-3(2,4)-pyrimidina-1,5(1,4)-dibenzenacyclododecaphan-9-ene-5^2-carboxamide] |
